From patent US12209060B2, “Ketamine derivatives and compositions thereof” (XWPHARMA LTD., priority 2018, dated 2025)
Read-outs that look alike come from different tables or passages of the source.

Key:
[1] = cited from earlier work; for Cmax / Tmax / oral bioavailability: humans, orally administered 50 mg tablet, Yanagihara et al. 2003
In vivo Dog PK Studies = conditions: for AUC(0-last) / Cmax: S-ketamine in blood
Experimental: In vivo Dog PK Studies: Three male Beagle dogs were housed individually. Dogs in the oral administration groups were fasted overnight before treatment but with free access to water. Dogs in the IV groups had free access to food and water. For S-ketamine HCl salt, a single dose of […] was administered to each dog via intravenous (IV) administration. The vehicle used for S-ketamine HCl salt was saline. For other test compounds, a single dose of each test compound was administered to each dog via oral gavage (n=3/group). The vehicles used for dosing the test compounds were dependent on the properties of the test compound. Blood samples were collected at specified time-points (pre-dose, 10 min, 30 min, 1 h, 2 h, 3 h, 4 h, 5 h, 6 h, 8 h, post-dose) following administration to individual dogs within IV and PO group. To prevent compound degradation, drawn blood samples were immediately mixed in a ratio of 1:3 (v/v) with acetonitrile (containing 0.1% formic acid). The de-proteinized samples were temporarily held in ice following by storing at −70° C. before bioanalysis. The concentrations of analytes in the blood were determined by LC-MS/MS. Various pharmacokinetic parameters were calculated using Phoenix™ WinNonlin® software. To quantify the bioconversion efficiency of the test compounds in the circulation system, the bioavailability of S-ketamine after PO administration was calculated.
(§1) Bio-Analysis: Samples were monitored for parent compound disappearance and ketamine formation in multi-reaction monitoring (MRM) mode by LC-MS/MS system. The mobile phase was performed at a constant flow rate of 0.8 mL/min using a binary solvent system: Solvent A, de-ionized water containing 0.10% formic acid, and Solvent B, methanol containing 0.10% formic acid. MRM data were acquired, and the chromatograms were integrated using Quant Wizard of the version 1.5.2 software (Analyst Software from ABI). A weighted (1/x or 1/x^2) linear regression was used to generate the calibration curve from standards and to calculate the sample concentrations.
(§2) Pharmacokinetic Data Analysis: The pharmacokinetic parameters were estimated for each subject using the Phoenix™ WinNonlin program, version 6.3 (Phoenix WinNonlin© 2012, Pharsight Corporation, Mountain View, CA). Non-compartmental analysis was performed to generate parameter estimates. The terminal elimination rate constant (λ) was obtained, where possible, by linear regression of the terminal elimination phase of a log-linear plot of the blood concentration-time data. The criteria for λ acceptance were regression of at least three time points from the terminal elimination phase and r^2≥0.85. Half-life was defined as not determined (ND) if the criteria could not be met. Nominal time was used for t1/2 and AUC calculations. The apparent blood terminal elimination half-life (t1/2) was calculated according to the following formula: t1/2=ln(2)/λ. The observed maximum blood concentration (Cmax) and the time to reach the maximum blood concentration (Tmax) were obtained by visual inspection of the experimental data. The area under the blood concentration-time curve of ketamine from time 0 to the last measurable concentration (AUC(0-Last)) was determined by the linear trapezoidal method. The area under the blood concentration-time curve from time 0 to infinity (AUC(0-∞)) was determined by AUC(0-Last)+CLast/λ, in which CLast was the concentration corresponding to the time point of last measurable concentration (TLast).

[2] = Whole blood stability (ketamine formation), human; format: in vitro ADME; conditions: ketamine formed, S-ketamine = 100
[3] = In vivo Monkey PK studies; conditions: for AUC(0-∞) / Cmax: S-ketamine in blood
Experimental: The de-proteinized samples were temporarily held in ice following by storing at −70° C. before bioanalysis.
as §1, §2

[4] = Whole blood stability (ketamine formation), rat; format: in vitro ADME; conditions: 3 μM, 37° C., up to 60 min, ketamine formed, S-ketamine = 100
Experimental: Whole Blood Stability Assay: Test compounds were incubated in 37° C. pre-warmed rat whole blood at 3 μM (final acetonitrile concentration 1%) for up to 60 min at 37° C. One-hundred 100 μL aliquots of spiked sample solutions were taken at pre-defined time points (0 to 60 min) post incubation, and were immediately extracted by adding 5 volumes of extraction solvent and then centrifuged at 20,000×g for 5 min. The supernatant fractions were analyzed with LC-MS/MS for the amount of the test compound remaining and ketamine.

[5] = Whole blood stability (ketamine formation), mouse; format: in vitro ADME; conditions: ketamine formed, S-ketamine = 100
In vivo Rat PK Studies = test: In vivo Rat PK Studies; parameters: species or system rats; conditions: oral; bioavailability with respect to S-ketamine; oral dose level 5 μmol/kg to 160 μmol/kg
Experimental: (§3) In vivo Mouse/Rat PK Studies: Pharmacokinetic profiles of the test compounds were evaluated in mice and rats […] (S-ketamine or prodrugs) administration. The oral dose level was 5 μmol/kg to 160 μmol/kg administered at a volume of 10 mL/kg. Blood samples were collected from the facial veins using heparinated tubes at pre-dose and 0.05, 0.17, 0.5, 1, 2, 3, 4, 6, and 8 hours post-dose following intravenous administration, and withdrawn at pre-dose and 0.17, 0.5, 1, 2, 3, 4, 5, 6, and 8 hours post-dose following oral administration. In each mouse PK study, mice were sub-grouped for a sparse sampling strategy. Each mouse provided two blood samples at different collection times. Blood samples were collected from alternating groups of three mice per time point.
(§4) Non-compartmental analysis was performed to generate parameter estimates.

In vivo Mouse PK Studies = test: In vivo Mouse PK Studies; parameters: species or system mice; conditions: oral; bioavailability with respect to S-ketamine; oral dose level 5 μmol/kg to 160 μmol/kg
Experimental: as §3, §4

[6] = Whole blood stability (ketamine formation), monkey; format: in vitro ADME; conditions: ketamine formed, S-ketamine = 100
[7] = Whole blood stability (ketamine formation), dog; format: in vitro ADME; conditions: ketamine formed, S-ketamine = 100
[8] = oral, bioavailability with respect to S-ketamine (Table 5 summary)

Which Cmax [1] does the source give for `CN[C@@]1(c2ccccc2Cl)CCCCC1=O` [(R)-ketamine] here?
The Cmax was “about 41 ng/mL”.

And the Tmax [1]?
Its Tmax is “about 31 min”.

And the oral bioavailability [1]?
The oral bioavailability was “about 18%”.

For `CNC1(c2ccccc2Cl)CCCCC1=O` (centres unmarked) [Ketamine, 2-(2-chiorophenyl)-2-(methylamino)cyclohexan-1-one], which “oral bioavailability in humans (% F)” value [1] is on record?
The value was “about 20%”.

What does the source list for `CN[C@]1(c2ccccc2Cl)CCCCC1=O` [S-ketamine]?
AUC(0-last) (In vivo Dog PK Studies; dogs, IV @3.75 μmol/kg): 0.244 µM·h; Cmax (In vivo Dog PK Studies; dogs, IV @3.75 μmol/kg): 669 nM; AUC(0-last) (In vivo Dog PK Studies; dogs, PO 15 μmol/kg): 0.017 µM·h; Cmax (In vivo Dog PK Studies; dogs, PO 15 μmol/kg): 9 nM; F (In vivo Dog PK Studies; dogs, PO 15 μmol/kg, bioavailability of S-ketamine): 1.8%; Dog F (In vivo Dog PK Studies; [8]): 1.8%; Cmax [1]: about 41 ng/mL; Tmax [1]: about 31 min; oral bioavailability [1]: about 18%; Human Ket (%) [2]: 100%; AUC(0-∞) ([3]; monkeys, IV @5 μmol/kg): 2.325 µM·h; Cmax ([3]; monkeys, IV @5 μmol/kg): 1200 nM; AUC(0-∞) ([3]; monkeys, PO @10 μmol/kg): 0.034 µM·h; Cmax ([3]; monkeys, PO @10 μmol/kg): 13 nM; F ([3]; monkeys, PO @10 μmol/kg, bioavailability of S-ketamine): 0.7%; Monkey F [3, 8]: 0.7%; Rat Ket (%) [4]: 100%; Mouse Ket (%) [5]: 100%; Rat F (In vivo Rat PK Studies): 4.9%; Mouse F (In vivo Mouse PK Studies): 5.6%; Monkey Ket (%) [6]: 100%; Dog Ket (%) [7]: 100%
